2 compounds from publication PMC2852483 (Molecular cancer therapeutics, 2010) can be followed below.

The tissue uptake is the percentage of the injected dose found per gram of tissue. The low end stands for low uptake, the high end for high uptake.

Numbered stars: 1 amine (or outer) side, 2 acyl side, 3 side chain; on linkers, the order of the positions; unused ones are H or OH. Square brackets hold non-standard residues; d marks the D form. Side chains are listed from the residue outwards. Peptide text beside a SMILES is read from it. * marks the point of attachment. NOTA(2S-Bn(4-NHCS)) = O=C(O)CN1CCN(CC(=O)O)C[C@H](Cc2ccc(NC(=S)*)cc2)N(CC(=O)O)CC1; NH(2-(imidazol-4-yl)ethyl) = c1ncc(CCN*)[nH]1; Suc = O=C(CCC(=O)[*:2])[*:1]

Details of data set [1]: species or system nude BALB/c mice. Particulars: mouse, in vivo, 5 MBq.
The subject of data set [2] is s.c. CEA-expressing LS174T tumor. Also noted: species or system nude BALB/c mice. The note with it: mouse.

In data set [1], `C[C@@H](NC(=S)Nc1ccc(C[C@H]2CN(CC(=O)O)CCN(CC(=O)O)CCN2CC(=O)O)cc1)C(=O)N[C@H](CCCCNC(=O)CNC(=O)CCC(=O)NCCc1c[nH]cn1)C(=O)N[C@H](Cc1ccc(O)cc1)C(=O)N[C@H](CCCCNC(=O)CNC(=O)CCC(=O)NCCc1c[nH]cn1)C(N)=O` [IMP-449] ({NOTA(2S-Bn(4-NHCS))}-[dA][dK]([Gly-Suc-NH(2-(imidazol-4-yl)ethyl)])[dY][dK]([Gly-Suc-NH(2-(imidazol-4-yl)ethyl)])-NH2; N-terminus and C-terminus assumed) displayed a tissue uptake of 0.54 ± 0.2 %ID/g.

For the compound `C[C@@H](NC(=S)Nc1ccc(C[C@H]2CN(CC(=O)O)CCN(CC(=O)O)CCN2CC(=O)O)cc1)C(=O)N[C@H](CCCCNC(=O)CNC(=O)CCC(=O)NCCc1c[nH]cn1)C(=O)N[C@H](Cc1ccc(O)cc1)C(=O)N[C@H](CCCCNC(=O)CNC(=O)CCC(=O)NCCc1c[nH]cn1)C(N)=O` [^18F-IMP-449] ({NOTA(2S-Bn(4-NHCS))}-[dA][dK]([Gly-Suc-NH(2-(imidazol-4-yl)ethyl)])[dY][dK]([Gly-Suc-NH(2-(imidazol-4-yl)ethyl)])-NH2; N-terminus and C-terminus assumed), the stability in vivo entry in data set [2] is “stable in vivo”. The “tumor uptake in non-pretargeted mice” value in data set [2] (in vivo) was 0.45 ± 0.38 % ID/g.
